Toxic doses and inconclusive results are not listed. No stated cut-off is given here; in the data, active means T/C of 150% or more; inactive means T/C below 125%.
Test system: L1210 leukemia ip in BDF1 mice, survival T/C
Assay: NCI In Vivo Anticancer Drug Screen. Data for tumor model L1210 Leukemia (intraperitoneal) in B6D2F1 (BDF1) mice
Conditions: endpoint: mean survival time, higher = longer survival
Summary of the method: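 Transplantable tumor model; survival measured in treated vs vehicle control mice. Value = treated/control.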

[1] = dose: 100.0 mg/kg/injection, schedule: Q04DX002 (ip), vehicle: saline with Tween-80
[2] = dose: 200.0 mg/kg/injection, schedule: Q04DX002 (ip), vehicle: saline with Tween-80
[3] = dose: 400.0 mg/kg/injection, schedule: Q04DX002 (ip), vehicle: saline with Tween-80
[4] = dose: 100.0 mg/kg/injection, schedule: Q04DX003 (ip), vehicle: saline
[5] = dose: 200.0 mg/kg/injection, schedule: Q04DX003 (ip), vehicle: saline
[6] = dose: 400.0 mg/kg/injection, schedule: Q04DX003 (ip), vehicle: saline
[7] = dose: 100.0 mg/kg/injection, schedule: Q01DX009 (ip), vehicle: saline
[8] = dose: 200.0 mg/kg/injection, schedule: Q01DX009 (ip), vehicle: saline
[9] = dose: 400.0 mg/kg/injection, schedule: Q01DX009 (ip), vehicle: saline
[10] = dose: 100.0 mg/kg/injection, schedule: Q01DX001 (ip), vehicle: Klucel (hydroxypropylcellulose) (HPC)
[11] = dose: 200.0 mg/kg/injection, schedule: Q01DX001 (ip), vehicle: Klucel (hydroxypropylcellulose) (HPC)
[12] = dose: 100.0 mg/kg/injection, schedule: Q04DX003 (ip), vehicle: Klucel (hydroxypropylcellulose) (HPC)
[13] = dose: 200.0 mg/kg/injection, schedule: Q04DX003 (ip), vehicle: Klucel (hydroxypropylcellulose) (HPC)
[14] = dose: 400.0 mg/kg/injection, schedule: Q04DX003 (ip), vehicle: Klucel (hydroxypropylcellulose) (HPC)
[15] = dose: 100.0 mg/kg/injection, schedule: Q04DX003 (ip), vehicle: saline with Tween-80
[16] = dose: 200.0 mg/kg/injection, schedule: Q04DX003 (ip), vehicle: saline with Tween-80
[17] = dose: 400.0 mg/kg/injection, schedule: Q04DX003 (ip), vehicle: saline with Tween-80
[18] = dose: 50.0 mg/kg/injection, schedule: Q01DX009 (ip), vehicle: saline with Tween-80
[19] = dose: 100.0 mg/kg/injection, schedule: Q01DX001 (ip), vehicle: saline

Measured: T/C

Cc1ncc(CO)c2c1OC1=CCCCC1=C2
inactive: [1] 95 % of control | [2] 92 % of control

CC(=O)CCP(C)(=O)O
inactive: [1] 95 % of control | [2] 92 % of control | [3] 104 % of control

COc1ccc(OC)c2c(C(O)CNC34CC5CC(CC(C5)C3)C4)cc(-c3ccc(Cl)cc3)nc12 (centres undefined)
inactive: [4] 97 % of control | [5] 92 % of control | [6] 92 % of control

CC(CNC1CCCCC1)OC(=O)c1ccc([N+](=O)[O-])cc1 (centres undefined)
inactive: dose: 75.0 mg/kg/injection, schedule: Q01DX001 (ip), vehicle: acetone 103 % of control | dose: 150.0 mg/kg/injection, schedule: Q01DX001 (ip), vehicle: acetone 93 % of control | dose: 300.0 mg/kg/injection, schedule: Q01DX001 (ip), vehicle: acetone 97 % of control

CCCCCCC(O)C/C=C\CCCCCCCCO (centres undefined)
inactive: [7] 121 % of control | [4] 101 % of control | [8] 115 % of control | [5] 99 % of control | [9] 103 % of control | [6] 104 % of control

CN(C)C=Nc1ncnc2nc[nH]c12
inactive: [1] 102 % of control | [2] 102 % of control | [3] 109 % of control

COC(=O)/C=C(/Nc1cccc2ccccc12)C(=O)OC
inactive: dose: 50.0 mg/kg/injection, schedule: Q01DX001 (ip), vehicle: Klucel (hydroxypropylcellulose) (HPC) 102 % of control | [10] 96 % of control | [11] 114 % of control

Oc1cccc(C(c2ccccc2)C2CCCCC2)c1 (centres undefined)
inactive: dose: 100.0 mg/kg/injection, schedule: Q01DX001 (ip), vehicle: saline with Tween-80 98 % of control | dose: 200.0 mg/kg/injection, schedule: Q01DX001 (ip), vehicle: saline with Tween-80 88 % of control | dose: 400.0 mg/kg/injection, schedule: Q01DX001 (ip), vehicle: saline with Tween-80 98 % of control

COC(=O)c1c(C(=O)OC)c2c(-c3ccccc3)cc3cccc1n32
inactive: [12] 94 % of control | [13] 102 % of control | [14] 94 % of control

CCn1c2ccccc2c2cc(NC(C)=O)ccc21
inactive: [15] 103 % of control | [16] 98 % of control | [17] 101 % of control

O=C(COc1ccccc1)Nc1cccnc1
inactive: [10] 94 % of control | [11] 102 % of control

CC(=O)Nc1ccc(/C=N/NC(=O)c2ccc(C)cc2)cc1
inactive: [18] 93 % of control | dose: 200.0 mg/kg/injection, schedule: Q01DX009 (ip), vehicle: saline with Tween-80 90 % of control

CCCCNC(=O)c1cc(NC(=O)c2ccc(C(=O)Nc3cc(C(=O)NCCCC)cc(C4N=CCN4)c3)cc2)cc(C2=NCCN2)c1 (centres undefined)
inactive: dose: 5.0 mg/kg/injection, schedule: Q01DX015 (ip), vehicle: methylcellulose (MC) 86 % of control | dose: 20.0 mg/kg/injection, schedule: Q01DX015 (ip), vehicle: methylcellulose (MC) 86 % of control | dose: 40.0 mg/kg/injection, schedule: Q01DX015 (ip), vehicle: methylcellulose (MC) 91 % of control | dose: 62.0 mg/kg/injection, schedule: Q01DX015 (ip), vehicle: methylcellulose (MC) 100 % of control

C1CCC(P(C2CCCCC2)C2CCCCC2)CC1
inactive: [12] 93 % of control | [13] 93 % of control | [14] 89 % of control

CCOC(=O)c1ccc(NCCC(=O)CBr)cc1
inactive: dose: 5.0 mg/kg/injection, schedule: Q01DX001 (ip), vehicle: carboxymethylcellulose (CMC) 97 % of control | dose: 10.0 mg/kg/injection, schedule: Q01DX001 (ip), vehicle: carboxymethylcellulose (CMC) 97 % of control | dose: 20.0 mg/kg/injection, schedule: Q01DX001 (ip), vehicle: carboxymethylcellulose (CMC) 92 % of control | dose: 40.0 mg/kg/injection, schedule: Q01DX001 (ip), vehicle: carboxymethylcellulose (CMC) 100 % of control

C/C=N\O
inactive: dose: 25.0 mg/kg/injection, schedule: Q01DX001 (ip), vehicle: saline 112 % of control | dose: 50.0 mg/kg/injection, schedule: Q01DX001 (ip), vehicle: saline 102 % of control | [19] 102 % of control

O=C1OC(n2ccc3ccccc32)c2ccccc21 (centres undefined)
inactive: [19] 105 % of control | [4] 89 % of control | dose: 200.0 mg/kg/injection, schedule: Q01DX001 (ip), vehicle: saline 96 % of control | [5] 92 % of control | dose: 400.0 mg/kg/injection, schedule: Q01DX001 (ip), vehicle: saline 102 % of control | [6] 89 % of control

Cc1cn(-c2c(C)c(C)c(-n3c(C)ccc3C)c(C)c2C)cc1C
inactive: dose: 100.0 mg/kg/injection, schedule: Q01DX009 (ip), vehicle: Klucel (hydroxypropylcellulose) (HPC) 86 % of control | dose: 200.0 mg/kg/injection, schedule: Q01DX009 (ip), vehicle: Klucel (hydroxypropylcellulose) (HPC) 93 % of control | dose: 400.0 mg/kg/injection, schedule: Q01DX009 (ip), vehicle: Klucel (hydroxypropylcellulose) (HPC) 90 % of control

CCOC(=O)CCc1c(C(=O)O)[nH]c(C(=O)OCC)c1C
inactive: dose: 25.0 mg/kg/injection, schedule: Q04DX003 (ip), vehicle: Klucel (hydroxypropylcellulose) (HPC) 102 % of control | dose: 50.0 mg/kg/injection, schedule: Q04DX003 (ip), vehicle: Klucel (hydroxypropylcellulose) (HPC) 107 % of control | [10] 98 % of control | [12] 102 % of control | [11] 97 % of control | [13] 93 % of control | dose: 400.0 mg/kg/injection, schedule: Q01DX001 (ip), vehicle: Klucel (hydroxypropylcellulose) (HPC) 97 % of control | [14] 101 % of control

O=S(=O)(O)CCN(CCO)CCO
inactive: [7] 98 % of control | [4] 97 % of control | [8] 101 % of control | [5] 101 % of control | [9] 109 % of control | [6] 94 % of control

CCCCCCCCC(=O)Nc1cccc(O)c1
inactive: [15] 96 % of control | [16] 101 % of control | [17] 96 % of control

CC(=O)OCC(=O)[C@@]1(O)CC[C@H]2[C@@H]3CCC4=CC(=O)C=C[C@]4(C)[C@@]3(F)[C@@H](O)C[C@@]21C
inactive: dose: 12.5 mg/kg/injection, schedule: Q01DX009 (ip), vehicle: saline with Tween-80 117 % of control | dose: 25.0 mg/kg/injection, schedule: Q01DX009 (ip), vehicle: saline with Tween-80 101 % of control | [18] 96 % of control

CCC1SC(=S)N(C(=O)c2ccc([N+](=O)[O-])cc2)C1CC (centres undefined)
inactive: dose: 25.0 mg/kg/injection, schedule: Q04DX002 (ip), vehicle: Klucel (hydroxypropylcellulose) (HPC) 111 % of control | dose: 50.0 mg/kg/injection, schedule: Q04DX002 (ip), vehicle: Klucel (hydroxypropylcellulose) (HPC) 95 % of control

CC[CH2][Sn]([CH2]CC)([CH2]CC)[O]C(=O)C(Cl)(Cl)Cl
inactive: dose: 0.39 mg/kg/injection, schedule: Q01DX009 (ip), vehicle: saline with Tween-80 87 % of control | dose: 0.78 mg/kg/injection, schedule: Q01DX009 (ip), vehicle: saline with Tween-80 98 % of control | dose: 1.56 mg/kg/injection, schedule: Q01DX009 (ip), vehicle: saline with Tween-80 91 % of control

— PubChem BioAssay AID248 (DTP/NCI, 2004)
